For series [1], the system named is guinea pigs. Briefly: learned helplessness assay for antidepressant/antianxiety activity. In kind it is in vivo. The settings on record: guinea pig. An excerpt:
The utility of the compounds for example to treat depression may be shown via a learned helplessness test in guinea pigs, which is used extensively as correlative to antidepressant activity in humans. The learned helplessness test may be carried out as follows: Seventy male Hartley guinea pigs, each weighing about 350-425 gm are fed ad lib, and are housed under a 12-hour light/dark cycle. The procedure consists of two phases: The induction phase and the avoidance training phase. In the induction phase, subjects are placed into standard shuttle cages (20 L×16 W×21 centimeters H) which are fitted with a grid floor. Electrical stimulation (1.25 mA, 10 sec duration) is delivered to the floor of the cage every 90-sec during 1 hour daily sessions. Subjects have no opportunity to escape or to avoid shocks. Induction is conducted for 2 consecutive days.
In avoidance training, testing is also conducted in the shuttle cages, except that the subjects are not returned to the same chamber in which induction had occurred. Additionally, all cages are fitted with a partition with an arch in the center of the cage, through which animals can pass between the left and right halves of the cage. The procedure employed is a standard shuttle avoidance procedure in which a compound, conditioned stimulus (a 10-sec presentation of a tone and turning on of a lamp on the side of the cage that the guinea pig was occupying) serves to indicate presentation of electrical current to the floor of the cage. Shock is presented for a 5 sec period, 5 sec after initiation of the conditioned stimulus. Entry into the opposite side of the shuttle cage via the arched partition prior to shock onset results in the end of the trial (avoidance response). If shock is delivered, entry into the opposite side of the cage results in termination of the shock and CS (escape). Reversal of learned helplessness in the induction subjects correlates to antidepressant activity of the test compound.
Avoidance training, 45-min in duration, is conducted on 2 consecutive days, beginning 48 hr after the final induction session. Seventy subjects are assigned to 1 of 6 groups of 11-12 animals. The groups are as follows:
Groups 2-6 are given induction and avoidance training sessions. Injections are administered immediately following induction sessions and 1 hour prior to avoidance training sessions. A second injection is administered 7-8 hours following the first injection, for a total of 9 injections administered over 5 days. No injections are administered following the final avoidance training session.
Compounds of the present invention may be administered in a volume of 1 mL/kg bwt. Imipramine is dissolved in DI water. The compounds are dissolved in DI water, to which was added a few drops of lactic acid (pH 5.5). […]

This note sets out measurements from US20040110745A1, “Therapeutic chroman compounds” (priority 2001, published 2004).

Usually melting point stands for the temperature, or range, at which the solid turns liquid.

Consider `COc1cc(N2CCN(C)CC2)c2oc(C(=O)Nc3ccc(N4CCOCC4)cc3)cc(=O)c2c1` [Example 31, 6-Methoxy-8-(4-methyl-piperazin-1-yl)-4-oxo-4H-chromene-2-carboxylic acid (4-morpholin-4-yl-phenyl)-amide], for which the melting point was 234 to 236 °C. Besides, the “activity in the learned helplessness assay” value (shortened to “activity”) in series [1] was “demonstrate activity”.
`CN1CCN(c2cccc3c2OC(C(=O)Nc2ccc(N4CCOCC4)cc2)CC3)CC1` (single isomer, unassigned; (+)) [Example 76, (+)-8-(4Methyl-piperazin-1-yl)-chroman-2-carboxylic acid (4-morpholin-4-yl-phenyl)-amide]: the melting point is 206 to 207 °C.
Take `CCC(=O)N1CCN(c2ccc(NC(=O)c3cc(=O)c4cc(F)cc(N5CCN(C)CC5)c4o3)cc2)CC1` [Example 72, 6-flouro-8-(4-methyl-piperazin-1-yl)-4-oxo-4H-chromene-2-carboxylic acid [4-(4-propionyl-piperazin-1-yl)-phenyl]-amide]: the “activity” value in series [1] is “demonstrate activity”.
In the case of `CN1CCN(c2cccc3c(=O)cc(C(=O)Nc4ccc(N5CCOCC5)cc4O)oc23)CC1` [Example 22, 8-(4-Methyl-piperazin-1-yl)-4-oxo-4H-chromene-2-carboxylic acid (2-hydroxy-4-morpholin-4-yl-phenyl)-amide], the melting point lay within 248.4 to 249.6 °C.
Still for that read-out and setting: to `CN1CCN(c2cccc3c2OC(C(=O)Nc2ccc(N4CCOCC4)cc2)CC3)CC1` (racemic) [Example 75, racemic-8-(4-Methyl-piperazin-1-yl)-chroman-2-carboxylic acid (4-morpholin-4-yl-phenyl)-amide] belongs 215 to 216 °C.
As to `COc1cc(N2CCN(C)CC2)c2oc(C(=O)Nc3ccc(N4CCN(C(=O)CCO)CC4)cc3)cc(=O)c2c1` [Example 68, 6-Methoxy-8-(4-methyl-piperazin-1-yl)-4-oxo-4H-chromene-2-carboxylic acid {4-[4-(3-hydroxy-propanoyl)-piperazin-1-yl]-phenyl}-amide], the melting point was in the range of 195 to 197 °C.
Take `CCNC(=O)N1CCN(c2ccc(NC(=O)c3cc(=O)c4cc(F)cc(N5CCN(C)CC5)c4o3)cc2)CC1` [Example 81, 4-[4-({1-[6-Fluoro-8-(4-methyl-piperazin-1-yl)-4-oxo-4H-chromen-2-yl]-methanoyl}-amino)-phenyl]-piperazine-1-carboxylic acid Ethylamide]: the melting point was in the range of 236 to 238 °C.
On to `CN1CCN(c2cccc3c2OC(C(=O)Nc2ccc(N4CCOCC4)cc2)CC3=O)CC1` (single isomer, unassigned) [Example 79, 8-(4-Methyl-piperazin-1-yl)-4-oxo-chroman-2-carboxylic acid (4-morpholin-4-yl-phenyl)-amide], for which the melting point was 216 °C (dec.).
In the case of `CN1CCN(c2cccc3c2OC(C(=O)Nc2ccc(N4CCOCC4)cc2)CC3=O)CC1` (single isomer, unassigned) [Example 80, 8-(4-Methyl-piperazin-1-yl)-4-oxo-chroman-2-carboxylic acid (4-morpholin-4-yl-phenyl)-amide], the melting point was 215 °C (dec.).
On to `CN1CCN(c2cccc3c2OC(C(=O)Nc2ccc(N4CCOCC4)cc2)CC3)CC1` (single isomer, unassigned; (-)) [Example 77, (−)-8-(4-Methyl-piperazin-1-yl)-chroman-2-carboxylic acid (4-morpholin-4-yl-phenyl)-amide], for which the melting point fell in the range of 205.5 to 207 °C.
On to `CN1CCN(c2cccc3c(=O)cc(C(=O)Nc4ccc(N5CCOCC5)cc4)oc23)CC1` [Example 1, 8-(4-methyl-1-piperazinyl)-N-[4-(4-morpholinyl)phenyl]-4-Oxo-4H-chromene-2-carboxamide], for which the melting point was 217 to 218 °C (dec.).
`CN1CCN(c2cccc3c(=O)cc(C(=O)N(C)c4ccc(N5CCOCC5)cc4)oc23)CC1` [Example 25, 8-(4-Methylpiperazin-1-yl)-4-oxo-4H-chromene-2-carboxylic acid methyl-(4-morpholin-4-yl-phenyl)amide]: the melting point lay in the range of 245 to 246.8 °C.
The compound `CN1CCN(c2cc(F)cc3c(=O)cc(C(=O)Nc4ccc(N5CCN(C(=O)CCO)CC5)cc4)oc23)CC1` [Example 73, 6-Fluoro-8-(4-methyl-piperazin-1-yl)-4-oxo-4H-chromene-2-carboxylic acid {4-[4-(3-hydroxy-propanoyl)-piperazin-1-yl]-phenyl}-amide] displayed a melting point of 195 to 199 °C.
For `CCC(=O)N1CCN(c2ccc(NC(=O)c3cc(=O)c4cc(OC)cc(N5CCN(C)CC5)c4o3)cc2)CC1` [Example 44, 6-Methoxy-8-(4-methyl-piperazin-1-yl)-4-oxo-4H-chromene-2-carboxylic acid [4-(4-propionyl-piperazin-1-yl)-phenyl]-amide], in series [1], the “activity” value was “demonstrate activity”.
In turn, `CN1CCN(c2cccc3c2OC(C(=O)Nc2ccc(N4CCOCC4)cc2)CC3=O)CC1` (racemic) [Example 78, racemic-8-(4-methyl-piperazin-1-yl)-4-oxo-chroman-2-carboxylic acid (4-morpholin-4-yl-phenyl)-amide] showed a melting point of 215 to 216 °C.
Consider `CCS(=O)(=O)N1CCN(c2ccc(NC(=O)c3cc(=O)c4cc(F)cc(N5CCN(C)CC5)c4o3)cc2)CC1` [Example 71, 6-Fluoro-8-(4-methyl-piperazin-1-yl)-4-oxo-4H-chromene-2-carboxylic acid [4-(4-ethane sulfonyl-piperazin-1-yl)-phenyl]-amide], for which the melting point lay within 233 to 234 °C. Also, the “activity” value in series [1] is “demonstrate activity”.
